Source: PubChem BioAssay AID328 (DTP/NCI, 2004)
Inconclusive results and toxic doses are left out.

System: BDF1 mice, P388 leukemia ip, median survival T/C
Assay: NCI In Vivo Anticancer Drug Screen. Data for tumor model P388 Leukemia (intraperitoneal) in B6D2F1 (BDF1) mice
Details: endpoint: median survival time, higher = longer survival
Outline: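 Reported as T/C, where T is the survival measurement in dosed animals and C the same measurement in vehicle controls.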

[1] = dose: 100.0 mg/kg/injection, schedule: Q01DX009 (ip), vehicle: saline
[2] = dose: 400.0 mg/kg/injection, schedule: Q01DX009 (ip), vehicle: saline
[3] = dose: 50.0 mg/kg/injection, schedule: Q01DX009 (ip), vehicle: saline
[4] = dose: 200.0 mg/kg/injection, schedule: Q01DX009 (ip), vehicle: saline
[5] = dose: 50.0 mg/kg/injection, schedule: Q04DX003 (ip), vehicle: saline
[6] = dose: 100.0 mg/kg/injection, schedule: Q04DX003 (ip), vehicle: saline

## O=S(=O)(O)C1CCCCC1O (stereo not drawn)
dose: 100.0 mg/kg/injection, schedule: Q04DX002 (ip), vehicle: saline with Tween-80
  T/C: 98 % of control
dose: 200.0 mg/kg/injection, schedule: Q04DX002 (ip), vehicle: saline with Tween-80
  T/C: 101 % of control

## CC(=O)N(CC1CNc2nc(N)[nH]c(=O)c2N1C(=O)CCCCCCC(=O)N1c2c(nc(N)[nH]c2=O)NCC1CN(C(C)=O)c1ccc(C(=O)NC(CCC(=O)O)C(=O)O)cc1)c1ccc(C(=O)NC(CCC(=O)O)C(=O)O)cc1 (stereo not drawn)
dose: 50.0 mg/kg/injection, schedule: Q04DX003 (ip), vehicle: sodium bicarbonate
  T/C: 103 % of control
dose: 100.0 mg/kg/injection, schedule: Q04DX003 (ip), vehicle: sodium bicarbonate
  T/C: 91 % of control
dose: 200.0 mg/kg/injection, schedule: Q04DX003 (ip), vehicle: sodium bicarbonate
  T/C: 112 % of control

## CC(CC#N)NC(=O)C1CCC(N)=N1 (stereo not drawn)
[1]
  T/C: 111 % of control
[2]
  T/C: 103 % of control

## OCCCC1CCCCC1
[3]
  T/C: 111 % of control
[1]
  T/C: 113 % of control
[4]
  T/C: 117 % of control

## CCCC1CC[N-]CC1.CCCC1CC[N-]CC1.CCCC1CC[N-]CC1.CCCC1CC[N-]CC1.[Cl][Ni][Cl]
dose: 2.0 mg/kg/injection, schedule: Q01DX009 (ip), vehicle: saline
  T/C: 116 % of control
dose: 4.0 mg/kg/injection, schedule: Q01DX009 (ip), vehicle: saline
  T/C: 97 % of control
dose: 6.25 mg/kg/injection, schedule: Q01DX009 (ip), vehicle: saline
  T/C: 112 % of control
dose: 8.0 mg/kg/injection, schedule: Q01DX009 (ip), vehicle: saline
  T/C: 116 % of control
[5]
  T/C: 100 % of control

## C[C@@H]1C[C@@H]([C@@H](CC2CC(=O)NC(=O)C2)OC(=O)CC(=O)c2ccccc2)C(=O)[C@@H](C)C1
dose: 11.0 mg/kg/injection, schedule: Q01DX009 (ip), vehicle: saline with Tween-80
  T/C: 120 % of control
dose: 25.0 mg/kg/injection, schedule: Q01DX009 (ip), vehicle: saline with Tween-80
  T/C: 165 % of control
dose: 25.0 mg/kg/injection, schedule: Q04DX003 (ip), vehicle: saline with Tween-80
  T/C: 109 % of control
dose: 37.5 mg/kg/injection, schedule: Q01DX009 (ip), vehicle: saline with Tween-80
  T/C: 160 % of control
dose: 50.0 mg/kg/injection, schedule: Q01DX009 (ip), vehicle: saline with Tween-80
  T/C: 95 % of control
dose: 50.0 mg/kg/injection, schedule: Q04DX003 (ip), vehicle: saline with Tween-80
  T/C: 118 % of control

## CC(=O)[O][Pb]([CH2]C(C)C)([CH2]C(C)C)[CH2]C(C)C
dose: 0.75 mg/kg/injection, schedule: Q01DX009 (ip), vehicle: Klucel (hydroxypropylcellulose) (HPC)
  T/C: 107 % of control
dose: 1.5 mg/kg/injection, schedule: Q01DX009 (ip), vehicle: Klucel (hydroxypropylcellulose) (HPC)
  T/C: 109 % of control
dose: 3.0 mg/kg/injection, schedule: Q01DX009 (ip), vehicle: Klucel (hydroxypropylcellulose) (HPC)
  T/C: 105 % of control
dose: 6.0 mg/kg/injection, schedule: Q01DX009 (ip), vehicle: Klucel (hydroxypropylcellulose) (HPC)
  T/C: 107 % of control
dose: 12.0 mg/kg/injection, schedule: Q01DX009 (ip), vehicle: Klucel (hydroxypropylcellulose) (HPC)
  T/C: 107 % of control

## O=C(CN1CCOCC1)N1CCOCC1
[1]
  T/C: 90 % of control
[6]
  T/C: 100 % of control
[4]
  T/C: 100 % of control
dose: 200.0 mg/kg/injection, schedule: Q04DX003 (ip), vehicle: saline
  T/C: 95 % of control
[2]
  T/C: 100 % of control
dose: 400.0 mg/kg/injection, schedule: Q04DX003 (ip), vehicle: saline
  T/C: 104 % of control

## CC(=O)CC(C)=O.CC(=O)CC(C)=O.CC(=O)CC(C)=O.[Ga]
dose: 25.0 mg/kg/injection, schedule: Q04DX003 (ip), vehicle: saline
  T/C: 100 % of control
[5]
  T/C: 95 % of control
[6]
  T/C: 86 % of control

## Cn1nnc(CC(=O)O)n1
[3]
  T/C: 110 % of control
[1]
  T/C: 101 % of control
[4]
  T/C: 99 % of control

## CCOC(=O)C1=C(Nc2ccccc2)CSC1
dose: 25.0 mg/kg/injection, schedule: Q01DX009 (ip), vehicle: water
  T/C: 94 % of control
dose: 50.0 mg/kg/injection, schedule: Q01DX009 (ip), vehicle: water
  T/C: 97 % of control
dose: 100.0 mg/kg/injection, schedule: Q01DX009 (ip), vehicle: water
  T/C: 102 % of control
dose: 200.0 mg/kg/injection, schedule: Q01DX009 (ip), vehicle: water
  T/C: 108 % of control
dose: 400.0 mg/kg/injection, schedule: Q01DX009 (ip), vehicle: water
  T/C: 91 % of control
